{
  "source": "paper PMC12016938",
  "about": "“A small molecule PKCε inhibitor reduces hyperalgesia induced by paclitaxel or opioid withdrawal” (JCI Insight, 2025)",
  "test_system": "hyperalgesia induced by morphine withdrawal",
  "assay": "Time course of hyperalgesia induced by morphine withdrawal, von Frey SUDO",
  "settings": "for von Frey filament number that led to paw withdrawal: single male mouse; for Hyperalgesia after withdrawal from repeated morphine: male C57BL/6J mice, 20–100 mg/kg i.p. twice daily 5 days",
  "note": "Where “and” joins values, the source holds several entries; their conditions need not be identical. Identical values can stand only once. Counter-ions that a name gives are not always drawn.",
  "procedure": "Mice received repeated injections of saline (10 mL/kg, i.p.) or morphine (20–100 mg/kg, i.p.) twice daily for 5 days, to induce dependence.\nMechanical nociceptive thresholds in mice were quantified using the simplified up-down (SUDO) method with von Frey filaments ([36]). […] The force to bend the filaments ranged from 0.008 g (filament 1) to 6 g (filament 12). Mice were acclimated to the test room and apparatus for 1 hour prior to testing. We started testing mice with filament 5 (bending force 0.16 g) and stepped up or down according to the response of the mouse. The filament that elicited a definite paw withdrawal or notable flinch was recorded. All measures were averaged between both hind paws and are expressed as filament number, which allows for parametric analysis ([36]). The higher the filament number, the higher the pain threshold (and the lower the sensitivity to pain). Prior to starting experiments, baseline threshold levels were obtained 3–4 times at 2- to 5-day intervals on each of the hind paws of the mouse.\nMorphine dependence in mice was induced by repeated i.p. injections (10 mL/kg) of morphine administered at increasing doses, over 5 days (day 1: 20 mg/kg, day 2: 40 mg/kg, day 3: 60 mg/kg, day 4: 80 mg/kg, day 5: 100 mg/kg). Injections of each dose were administered twice daily, 6 hours apart.",
  "data": [
    {"smiles": "CN1CC[C@]23c4c5ccc(O)c4O[C@H]2[C@@H](O)C=C[C@H]3[C@H]1C5", "note": "[Morphine, Morphine sulfate, reference compound]", "values": [
      {"measurement": "von Frey filament number that led to paw withdrawal", "setting": "1week after last morphine injection", "value": "5.5 filament number and 7.5 filament number and 6 filament number"},
      {"measurement": "von Frey filament number that led to paw withdrawal", "setting": "6h after last morphine injection", "value": "7.5 filament number and 9.5 filament number and 8 filament number and 7 filament number"},
      {"measurement": "von Frey filament number that led to paw withdrawal", "setting": "24h after last morphine injection", "value": "5.5 filament number and 6.5 filament number and 6 filament number and 7.5 filament number"},
      {"measurement": "von Frey filament number that led to paw withdrawal", "setting": "Baseline", "value": "7.5 filament number and 8.5 filament number and 8 filament number and 9.5 filament number"},
      {"measurement": "Hyperalgesia after withdrawal from repeated morphine", "setting": "6 hours after last injection", "value": "not present"},
      {"measurement": "Hyperalgesia after withdrawal from repeated morphine", "setting": "24 hours and 1 week after last injection", "value": "present"}
    ]}
  ]
}
